Results published in patent publication US20120101015A1, “ANTI-WEAR AGENTS WITH A REDUCED NEUROTOXICITY” (priority 2009, published 2012).
Like-named read-outs stand apart in the source and are kept apart here.

Columns and labels:
[1] = molecular target: human butyrylcholine esterase (Homo sapiens, UniProt P06276); format: biochemical
Description: A more sensitive assay was used in order to discriminate alkylphenyl diphenyl phosphates, di-alkylphenyl phenyl phosphates and tri-alkylphenyl phosphates based on their potential ability to inhibit BChE.
The assay was essentially the same as that described in Example 2 except that the triaryl phosphate solution to be tested was prepared in pure ethanol instead of in sodium phosphate buffer.
Some experiments were performed with rat liver microsomes (RLM) because human liver microsomes (HLM) were not available in sufficient quantity. However, human butyrylcholine esterase was used in all assays.
Briefly, base stock triarylphosphate solutions were prepared by dissolution or dilution of a triarylphosphate of interest in ethanol at 2.5 mg/ml. Dilution solutions were then prepared in buffer containing 10% ethanol. 7.5 μl of each dilution solution comprising a triarylphosphate was added to a liver microsome mix in phosphate buffer to give a solution comprising microsomes, NADPH (1 mM) and triarylphosphate at a concentration ranging from 0.20 to 25 μg/ml. This pre-incubation was done at room temperature for 20-25 minutes. After incubation, 7.5 μl of BChE solution (at 9.75 μg/ml in phosphate buffer) was added to the resulting microsome-containing solution. The resulting solution was incubated for 20-25 minutes. The BChE residual activity was then measured as described in Example 2 hereabove.
For each triarylphosphates, the percentages of residual BChE activity were determined for triarylphosphate final concentrations ranging from 0.3 μg/ml to 20 μg/ml.
The Durad 125® combination was used as positive control. For reminder, Durad 125 consists in a mixture of meta and para isomers of tricresyl phosphate.

[2] = molecular target: human butyrylcholinesterase (BChE) (Homo sapiens, UniProt P06276); test: In vitro BChE activity assay after incubation with human liver microsomes and NADPH (Example 2, stock in phosphate buffer); format: biochemical; conditions: for BChE residual activity percentage: triaryl phosphate 25 μg/ml, BChE reference activity 3.76 nmol DTNB/min
Description: As part of the study, the neurotoxicity of triaryl phosphates and combinations thereof was evaluated through an in vitro test using a model enzyme of esterase: the human butyrylcholinesterase. The human butyrylcholinesterase (BChE), or plasma cholinesterase, has an enzyme activity profile close to that of human acetylcholinesterase.
In this assay, triarylphosphates of interest are first incubated with human liver microsomes in the presence of NADPH to enable the production of potential metabolites. The incubation with microsomes is then followed by incubation with purified human BChE in the context of a micro-BChE activity assay.
This in vitro assay thus reproduces the in vivo metabolization of triaryl phosphates in the liver and enables to evaluate the anti-esterase activity of the resulting metabolites.
Six individual preparations of the same amount were collected to form a homogeneous pool representing the variability amongst the individuals, using a Potter-Elvehem Glass-Teflon homogenizer, with a 5 run-procedure in ice.
Mixture samples of 1.7 ml were collected in polypropylene centrifuge tubes, and thereafter stored at −80° C. The measured liver microsome content was 7.83 mg/ml.
A 250 μg/ml triaryl phosphate solution was prepared in a 50 mM sodium phosphate buffer at pH 7.4 by vigorously stirring in a vortex mixer for one minute. […]
The BChE activity is then measured according to the protocol defined by Ellman and al, (Ellman and al., 1961, Biochem Pharmacol, 7: 88-95), modified for use in micro-titration format. […]
Monitoring the TNB formation is effected by measuring the absorbance at 405 nm for 4 minutes at 23° C. with a microplate optical reader such as SpectraMax Plus spectrophotometer.
The BChE residual activity in the presence of triaryl phosphate is then expressed depending on the BChE reference activity, that is to say depending on the BChE activity measured in the presence of liver microsomes and NADPH and in the absence of triaryl phosphate (reference experiment).

hens = conditions: oral, Weiner and Jortner 1999; cited from earlier work
plasma BChE = plasma BChE (Rattus norvegicus, UniProt Q9JKC1); conditions: oral dose of 240 mg/kg, 24 hours post-dosing
Description: The activity of BChE in the plasma of rats was determined following oral administration of 240, 120, 60 and 10 mg/kg of body weight of Durad 125 or tri-para-tert-butyl phosphate at 6 hours postdosing and 24 hours postdosing. Each dose solution was prepared in a corn oil vehicle and administered by gavage. Control animals were administered an appropriate amount of corn oil (witout any triarylphosphate compounds). All animals were fasted for approximately 16 h prior to administration of the dose containing Durad 125, tri-p-t-butylphenyl phosphate or only corn oil.
Three to six animals per time point and per dose were humanely anesthetized, and sacrificed. For each animal, the blood was collected and the plasma was separated by centrifugation. The plasma samples were then stored at −80° C. until performing the BChE activity assay.
The BChE activity assay was performed as previously described according to Ellman et al (Biochem. Pharmacol. 7, 88-95).

[3] = rat liver microsomes (RLM), concentrations 1 μg/ml to 20 μg/ml
[4] = human liver microsomes (HLM), concentrations 1 μg/ml to 20 μg/ml
[5] = human liver microsomes, up to 20 μg/ml (FIG. 3a)

human butyrylcholinesterase (BChE), sequence (P06276 29-602): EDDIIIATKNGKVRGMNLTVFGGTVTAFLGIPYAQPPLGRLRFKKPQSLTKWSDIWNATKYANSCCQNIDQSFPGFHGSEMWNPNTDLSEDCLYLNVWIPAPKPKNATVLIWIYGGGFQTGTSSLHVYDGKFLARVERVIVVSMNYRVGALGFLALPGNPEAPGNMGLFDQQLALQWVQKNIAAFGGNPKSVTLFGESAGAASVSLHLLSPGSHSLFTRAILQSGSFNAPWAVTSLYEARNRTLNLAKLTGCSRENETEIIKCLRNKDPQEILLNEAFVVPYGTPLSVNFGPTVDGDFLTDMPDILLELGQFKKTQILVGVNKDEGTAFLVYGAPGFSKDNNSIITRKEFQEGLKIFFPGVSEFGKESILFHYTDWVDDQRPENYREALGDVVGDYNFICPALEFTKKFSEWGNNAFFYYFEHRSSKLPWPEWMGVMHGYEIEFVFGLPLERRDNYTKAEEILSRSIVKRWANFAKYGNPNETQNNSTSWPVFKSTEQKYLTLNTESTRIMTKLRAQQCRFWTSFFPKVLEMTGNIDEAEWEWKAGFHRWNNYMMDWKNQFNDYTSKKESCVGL
human butyrylcholine esterase, sequence (P06276 29-602): as above
plasma BChE, sequence (Q9JKC1 24-597): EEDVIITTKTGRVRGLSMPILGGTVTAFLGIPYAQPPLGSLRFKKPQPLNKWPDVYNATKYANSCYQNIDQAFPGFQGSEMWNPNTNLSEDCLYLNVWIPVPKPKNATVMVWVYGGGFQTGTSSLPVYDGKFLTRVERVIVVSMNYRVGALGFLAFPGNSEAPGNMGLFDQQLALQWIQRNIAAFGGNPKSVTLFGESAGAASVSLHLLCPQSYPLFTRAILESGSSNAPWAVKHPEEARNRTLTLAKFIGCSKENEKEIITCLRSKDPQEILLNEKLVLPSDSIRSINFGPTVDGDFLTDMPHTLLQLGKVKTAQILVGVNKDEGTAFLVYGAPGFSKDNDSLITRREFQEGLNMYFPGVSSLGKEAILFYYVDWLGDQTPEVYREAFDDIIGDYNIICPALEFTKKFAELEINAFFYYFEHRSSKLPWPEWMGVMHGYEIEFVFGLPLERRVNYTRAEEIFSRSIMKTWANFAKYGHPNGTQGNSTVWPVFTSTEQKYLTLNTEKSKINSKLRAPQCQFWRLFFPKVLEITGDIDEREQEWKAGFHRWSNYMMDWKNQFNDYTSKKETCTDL

1-methylnonylphenyl diphenyl phosphate
Minimal BChE residual activity [1, 3]: 5.2%

Cc1ccccc1OP(=O)(Oc1ccccc1C)Oc1ccccc1C [C6, tri-ortho-cresyl phosphate]
BChE residual activity percentage [2]: very low | neurotoxicity (hens): highly neurotoxicity

O=P(Oc1ccccc1)(Oc1ccccc1)Oc1ccccc1 [C7, tri-phenylphosphate]
BChE inhibiting potential after incubation [2]: non negligible inhibiting potential | BChE residual activity percentage [2]: 44.8 +/− 10.4% | neurotoxicity (hens): non neurotoxic or poorly neurotoxic

CC(C)(C)c1ccc(OP(=O)(Oc2ccc(C(C)(C)C)cc2)Oc2ccc(C(C)(C)C)cc2)cc1 [P1, Tri-para-tert-butylphenyl phosphate]
inhibition of plasma BChE (plasma BChE): does not induce BChE inhibition | Minimal BChE residual activity [1, 4]: 90% | inhibition of BChE [1, 5]: did not induce a significant inhibition of BChE | Minimal BChE residual activity [1, 3]: >100%

CC(C)c1ccc(OP(=O)(Oc2ccc(C(C)C)cc2)Oc2ccc(C(C)C)cc2)cc1 [P2, Tri-para-isopropylphenyl phosphate]
Minimal BChE residual activity [1]: >100% | inhibition of BChE [1]: did not inhibit BChE

CC(C)c1ccccc1OP(=O)(Oc1ccccc1C(C)C)Oc1ccccc1C(C)C [P3, Tri-ortho-isopropylphenyl phosphate]
Minimal BChE residual activity [1]: 72.6%

CC(C)c1ccc(OP(=O)(Oc2ccccc2)Oc2ccc(C(C)C)cc2)cc1 [di-para-isopropylphenyl phenylphosphate]
Minimal BChE residual activity [1, 3]: 76.5%

CC(C)(C)c1ccc(OP(=O)(Oc2ccccc2)Oc2ccc(C(C)(C)C)cc2)cc1 [di-para-tert-butylphenyl phenylphosphate]
Minimal BChE residual activity [1, 4]: 85.2% | inhibition of BChE [1, 5]: did not induce a significant inhibition of BChE

CC(C)(C)c1ccc(OP(=O)(Oc2ccccc2)Oc2ccccc2)cc1 [para-tert-butylphenyl diphenyl phosphate]
Minimal BChE residual activity [1, 4]: 44.9% | inhibition of BChE ([1]; human liver microsomes, concentrations higher than 5 μg/ml (FIG. 3a)): at least 40%

CC(C)(C)c1cccc(OP(=O)(Oc2cccc(C(C)(C)C)c2)Oc2cccc(C(C)(C)C)c2)c1 [tri-meta-tert-butylphenyl phosphate]
Minimal BChE residual activity [1]: >100%

CC(C)(C)c1ccccc1OP(=O)(Oc1ccccc1C(C)(C)C)Oc1ccccc1C(C)(C)C [tri-ortho-tert-butylphenyl phosphate]
Minimal BChE residual activity [1]: >100%

dodecylphenyl diphenyl phosphate
Minimal BChE residual activity [1, 3]: 16%
